Test results taken from patent US20100074896A1, “ANTAGONISTS OF PGE2 EP3 RECEPTORS” (The Johns Hopkins University, priority 2006, published 2010).

Assays:
EP1 receptor = target: T1, EP1 receptor (Mus musculus, UniProt P35375); details: read-out: Affinity for the EP1 receptor; cited from earlier work
T1 sequence (P35375 1-405): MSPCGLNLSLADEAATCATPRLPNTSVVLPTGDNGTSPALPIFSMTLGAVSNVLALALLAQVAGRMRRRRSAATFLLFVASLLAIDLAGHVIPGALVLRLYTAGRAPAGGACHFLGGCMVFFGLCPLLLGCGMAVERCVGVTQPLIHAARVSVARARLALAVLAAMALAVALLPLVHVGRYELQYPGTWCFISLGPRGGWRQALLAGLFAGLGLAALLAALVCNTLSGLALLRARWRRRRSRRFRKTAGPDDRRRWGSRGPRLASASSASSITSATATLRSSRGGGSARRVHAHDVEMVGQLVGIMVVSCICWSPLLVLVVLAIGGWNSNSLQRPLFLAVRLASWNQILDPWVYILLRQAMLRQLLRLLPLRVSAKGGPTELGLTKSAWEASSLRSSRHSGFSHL

EP3 receptor = target: T2, EP3 receptor (Mus musculus, UniProt P30557); details: cited from earlier work; for Ki: read-out: Affinity for the EP3 receptor
T2 sequence (P30557 1-365): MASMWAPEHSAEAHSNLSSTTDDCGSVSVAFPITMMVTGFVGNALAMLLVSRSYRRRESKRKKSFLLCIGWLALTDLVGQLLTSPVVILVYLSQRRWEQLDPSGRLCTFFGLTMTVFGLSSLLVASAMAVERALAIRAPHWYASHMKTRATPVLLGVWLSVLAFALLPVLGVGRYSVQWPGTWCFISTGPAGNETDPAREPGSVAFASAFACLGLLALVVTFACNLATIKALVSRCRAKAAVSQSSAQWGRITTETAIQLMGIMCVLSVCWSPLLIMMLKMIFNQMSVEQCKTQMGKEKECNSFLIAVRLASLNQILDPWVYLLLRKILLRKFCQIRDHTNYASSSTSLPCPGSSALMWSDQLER

EP3 = details: CHO cell lines; cited from earlier work
[1] = system: mouse model of middle cerebral artery (MCA) occlusion; experiment: MCAO (90 min) and reperfusion, hemispheric infarct volume; type: in vivo; details: 90 min occlusion, 4 days reperfusion
Experimental: (§1) Mice were anesthetized with 3.0% halothane and maintained with 1.0-1.5% continuous flow of halothane in oxygen-enriched air. Then the mice were mounted on a stereotactic frame and injected with 0.2 μl of different doses of ONO-AE-248 (0.5 nmol, 2.5 nmol, or 5.0 nmol) or vehicle (DMSO) via a 1μl Hamilton syringe (Reno, Nev.) into the right lateral ventricle as described previously (Ahmad et al., 2006a). After the injection, the needle was retracted slowly, the hole was plugged with bone wax, and the wound was sutured. Mice were then either transferred to another setup for the MCAO procedure or left in place for NMDA injection (see below).
During the MCAO procedure (FIG. 1, Illustration A), mouse rectal temperature was monitored and maintained at 37.0±0.5° C. by a heating pad, and anesthesia was maintained with continuous flow of halothane in oxygen-enriched air via a nose cone. Relative CBF was monitored with laser-Doppler flowmetry (Moor Instruments, Devon, England) by a flexible fiber optic probe affixed to the skull over the parietal cortex supplied by the MCA (2 mm posterior and 6 mm lateral to the bregma). MCAO was carried out under aseptic conditions with a silicone-coated nylon monofilament as described previously (Shah et al., 2006). […]
Four days after MCAO surgery, mice (n=9/dose) were deeply anesthetized, and their brains were harvested and sliced coronally into five 2-mm-thick sections. […] The area of infarcted brain, identified by the lack of TTC staining, was measured on the rostral and caudal surfaces of each slice and numerically integrated across the thickness of the slice to obtain an estimate of infarct volume in each slice (SigmaScan Pro, SPSS, Port Richmond, Calif., USA). Volumes from all five slices were summed to calculate total infarct volume over the entire hemisphere and expressed as a percentage of the volume of the contralateral structure. […] The corrected infarct volume was calculated as: volume of contralateral hemisphere−(volume of ipsilateral hemisphere−volume of infarct).

mice [2] = experiment: Core body temperature by intra-abdominal radiofrequency probe; type: in vivo, mouse; details: mice without MCAO, room temperature, 4-day experiment
Experimental: A third cohort of mice was implanted with intra-abdominal radiofrequency probes [IPTT-200, Bio. Medic. Data System (BMDS), Seaford, Del.] 7 days before injection of ONO-AE-248 (n=5) or vehicle (n=5). Core temperature was sampled every 10 min for the first 90 min after injection, and then once daily for 4 days at room temperature via receivers (The DAS-5002 Notebook System™; BMDS). This telemetry system minimizes stress and allows temperature control and monitoring in freely moving animals.

[3] = system: NMDA-induced brain lesion in C57B1/6 WT mice; experiment: NMDA-induced brain lesion volume (excitotoxicity); type: in vivo, mouse; details: 15 nmol NMDA intrastriatal, 48 h
Experimental: as §1
To investigate the effect of NMDA toxicity in mice lacking the EP3 receptor, WT (n=7) and EP3-/- (n=8) mice were injected in the right striatum with 15 nmol NMDA or vehicle in a volume of 0.3 μl 20 min after being injected with ONO-AE-248, as reported earlier (Ahmad et al., 2006a). After injection, the hole was blocked and the wound sutured, as described above. After the surgical procedures, the animals were transferred to a temperature-regulated chamber to recover from anesthesia. Throughout the stereotactic procedures the rectal temperature of mice was monitored and maintained at 37.0±0.5° C.
At 48 h after NMDA injection, weight and rectal temperature of each mouse was recorded. Then, mice were transcardially perfused with phosphate-buffered saline, followed by 4% paraformaldehyde (pH 7.2), under deep anesthesia. Brains were immediately removed, post-fixed in paraformaldehyde overnight, cryoprotected in sucrose (30%) for 3 days, and frozen in 2-methyl butane (pre-cooled over dry ice). Brain sections cut on a cryostat were collected on microscope slides and stained with Cresyl Violet to estimate lesion volume. Images of the brain sections were taken and analyzed with SigmaScan Pro 5.0 software (Systat Software Inc., Richmond, Calif.) as described previously (Ahmad et al., 2006b).

mice [4] = experiment: Analysis of physiological parameters (arterial blood pH, PaO2, PaCO2, MABP) around MCAO; type: in vivo, mouse; details: before ischemia, during ischemia, during reperfusion; all doses
Experimental: Measurement of physiological parameters was carried out in a group of mice separate from that used to assess infarct volume (FIG. 1, Illustration B). Arterial blood samples collected via femoral catheter were analyzed for pH, PaO2, and PaCO2 before the occlusion, during occlusion, and 1 h after the occlusion. MABP was measured at the same time points by a pressure transducer connected to the femoral catheter.

rats = details: single ICV injection, 20 nmol; cited from earlier work

| SMILES | Ki (EP1 receptor) [nM] | Ki (EP3 receptor) [nM] | Effect on forskolin-induced increase in cAMP (EP3) | Infarct volume increase as compared with the vehicle-treated group ([1]; 0.5 nmol ICV before MCAO, not statistically significant) [%] | Infarct volume increase as compared with the vehicle-treated group ([1]; 2.5 nmol ICV before MCAO, statistically significant) [%] | Infarct volume increase as compared with the vehicle-treated group ([1]; 5.0 nmol ICV before MCAO, statistically significant) [%] | Effect on core body temperature (mice [2]) | Effect on NMDA-induced toxicity ([3]; 0.5 nmol ICV pretreatment) | Effect on NMDA-induced lesion size ([3]; 2.5 nmol ICV pretreatment, p<0.02) | Effect on NMDA-induced lesion size ([3]; 5 nmol ICV pretreatment, p<0.001) | MABP versus vehicle group (mice [4]) | PaCO2 versus vehicle group (mice [4]) | PaO2 versus vehicle group (mice [4]) | pH (arterial blood) versus vehicle group (mice [4]) | Specificity for EP3 over EP1 (EP3 receptor; EP3 versus EP1) [times] | Effect on body temperature (rats) |
| --- | --- | --- | --- | --- | --- | --- | --- | --- | --- | --- | --- | --- | --- | --- | --- | --- |
| CS(=O)(=O)NC(=O)CCC/C=C\C[C@H]1C(=O)C[C@@H](O)[C@@H]1/C=C/[C@@H](O)COc1ccccc1 [sulprostone] | 4 | 0.6 |  |  |  |  |  |  |  |  |  |  |  |  |  |  |
| O=C(O)CCC/C=C\C[C@H]1C(=O)C[C@@H](O)[C@@H]1/C=C/[C@@H](O)CCc1ccccc1 [17-phenyl trinor PGE2] | 14 | 21 |  |  |  |  |  |  |  |  |  |  |  |  |  |  |
| CCCCC[C@@H](/C=C/[C@H]1[C@H](OC)CC(=O)[C@@H]1C/C=C\CCCC(=O)O)OC [ONO-AE-248] |  |  | prevented the forskolin-induced increase in cAMP | 17 | 34 | 38 | did not affect core body temperature | did not affect | significantly and dose-dependently increased | significantly and dose-dependently increased | No statistically significant differences | No statistically significant differences | No statistically significant differences | No statistically significant differences | 1333 | mild hyperthermia was induced |
